This is an account of results in article PMC11568214, “The impact of 9-azaglycophymine and phenylguanidine derivatives on the proliferation of various breast cancer cell lines in vitro and in vivo” (Scientific Reports, 2024).

SMILES strings stand for the structures.

For one data set, the system named is HepG2 cell line.
Assay: not given
The conditions noted are these: read-out: IC50 against the HepG2 cell line; cited from earlier work. Details: method as in PMID 34237623.
Consider `COc1cc(C(=O)c2nc3ccccc3c(=O)[nH]2)cc(OC)c1OC` [2-(3,4,5-trimethoxybenzoyl)quinazolin-4(3H)-one], for which the IC50 is 1.22 ± 0.12 µM.

Another data set concerns BT-474. In words: Crystal violet (CV) cell viability assay, IC50 determination. The class given is cell-based. The conditions noted are these: Homo sapiens, 72 h treatment, mean ± SD. As for the experimental part:
(§1) For initial testing of the cytotoxic effect of the available glycophymine compounds (Table S2), cells were treated with compound in three concentrations: 1, 10 and 50 µM. Cells were seeded in 96-well plates and allowed to adhere overnight. Then they were treated for 72 h under standard culture conditions. […] For IC50 determination, the compounds were tested at seven concentrations (0.78, 1.56, 3.13, 6.25, 12.5, 25 and 50 µM). Subsequently, the cell viability was determined by using the crystal violet (CV) assay. Moreover, the selected compounds were tested against the mouse breast cancer cell line 4T1 (TNBC) as well. The compounds were prepared initially to obtain a stock solution of 20 mM in DMSO. Later, the working solutions were prepared by mixing the required amount of DMSO stock with the optimal medium for each cell line. The DMSO concentration in the final solution was always maintained lower than 0.5% to avoid any DMSO-derived side effects.
(§2) For CV assays, after 72 h treatment, the treatment medium was discarded from the 96-well plates, and the cells were washed using 50 µL of PBS. Cells were fixed by adding 50 µL of 4% (v/v) paraformaldehyde (PFA) in PBS for 15 min at room temperature (RT). Afterwards, PFA was discarded, and the plates were dried for 15 min at RT. 50 µL of CV working solution (0.1% w/v CV in PBS) were added to the wells, followed by 15 min incubation at RT. Subsequently, the CV solution was discarded, and the plates were washed using aqua bidest. (ddH2O) to remove any remaining CV solution. The plates were left to dry overnight at RT, and then 50 µL of 33% (v/v) acetic acid in ddH2O were added to each well. Finally, the absorbance was measured at 570 nm by using a SpectraMax M5 plate reader (Molecular Devices, California, USA) and at 670 nm as background wavelength. […] Additionally, gefitinib, an approved EGFR inhibitor of the quinazoline family, was tested as anti-proliferative positive control. The data represent the mean ± standard deviation derived from three independent biological replicates. Dose–response curves were generated by four-parametric non-linear regression analysis using the GraphPad Prism software (version: 10.1, San Diego, CA, USA). Based on that, IC50 values and standard deviations were calculated for each replicate individually.
In the case of `O=c1[nH]c(Nc2ccccc2)nc2ccc([N+](=O)[O-])cc12` [Compound 47], 4.5 ± 0.2 µM corresponded to half-maximal inhibition (IC50).

For `O=c1[nH]c(Nc2ccccc2)nc2cc([N+](=O)[O-])ccc12` [Compound 46], 4.4 ± 0.1 µM corresponded to half-maximal inhibition (IC50).

The compound `O=c1[nH]c(Nc2ccc(Cl)cc2)nc2ccccc12` [Compound 22] came in with a 50% inhibitory concentration (IC50) of 9.9 ± 1.5 µM.

Compound `O=c1[nH]c(Nc2ccc(Cc3ccc([N+](=O)[O-])cc3[N+](=O)[O-])cc2)nc2ccccc12` [Compound 24] returned an IC50 of 9.7 ± 1.3 µM.

A further data set concerns MCF-7. Described as above. The class given is cell-based. The conditions noted are these: Homo sapiens, MCF7, 72 h treatment, mean ± SD. As for the experimental part:
as §1, §2
`O=c1[nH]c(Nc2ccccc2)nc2ccc([N+](=O)[O-])cc12` [Compound 47] had a 50% inhibitory concentration (IC50) of 6.3 ± 0.4 µM.

`O=c1[nH]c(Nc2ccccc2)nc2cc([N+](=O)[O-])ccc12` [Compound 46] displayed an IC50 of 5.7 ± 0.6 µM.

In turn, `O=c1[nH]c(Nc2ccc(Cl)cc2)nc2ccccc12` [Compound 22] gave an IC50 of 10 ± 0.5 µM.

Turning to `O=c1[nH]c(Nc2ccc(Cc3ccc([N+](=O)[O-])cc3[N+](=O)[O-])cc2)nc2ccccc12` [Compound 24], the IC50 turned out to be 10.3 ± 1.3 µM.

The test system of a further data set is 4T1. The description is as above. The class given is cell-based. The conditions noted are these: Mus musculus, 72 h treatment, mean ± SD. As for the experimental part:
as §1, §2
Compound `O=c1[nH]c(Nc2ccccc2)nc2ccc([N+](=O)[O-])cc12` [Compound 47] yielded an IC50 of 12.6 ± 1.2 µM.

As to `O=c1[nH]c(Nc2ccccc2)nc2cc([N+](=O)[O-])ccc12` [Compound 46], inhibition was half-maximal at 7.9 ± 0.6 µM (IC50).

`O=c1[nH]c(Nc2ccc(Cl)cc2)nc2ccccc12` [Compound 22] returned an IC50 of 23.5 ± 7.2 µM.

In the case of `O=c1[nH]c(Nc2ccc(Cc3ccc([N+](=O)[O-])cc3[N+](=O)[O-])cc2)nc2ccccc12` [Compound 24], the IC50 is 11.3 ± 3.5 µM.

A further data set relates to HCC1937. The description is as above. Type of data set: cell-based. The conditions noted are these: Homo sapiens, 72 h treatment, mean ± SD. As to the method: as §1, §2
In the case of `O=c1[nH]c(Nc2ccccc2)nc2ccc([N+](=O)[O-])cc12` [Compound 47], the concentration for half-maximal inhibition (IC50) is 4.4 ± 0.3 µM.

The compound `O=c1[nH]c(Nc2ccccc2)nc2cc([N+](=O)[O-])ccc12` [Compound 46] registered an IC50 of 3.9 ± 0.2 µM.

In turn, `O=c1[nH]c(Nc2ccc(Cl)cc2)nc2ccccc12` [Compound 22] returned a concentration for half-maximal inhibition (IC50) of 14.8 ± 3.7 µM.

In the case of `O=c1[nH]c(Nc2ccc(Cc3ccc([N+](=O)[O-])cc3[N+](=O)[O-])cc2)nc2ccccc12` [Compound 24], the concentration for half-maximal inhibition (IC50) is 11 ± 1.9 µM.

Another data set concerns MDA-MB-468. Described as above. Type of data set: cell-based, human. The conditions noted are these: Homo sapiens, MDA-MB-468, 72 h treatment, mean ± SD. As for the experimental part: as §1, §2
`O=c1[nH]c(Nc2ccccc2)nc2ccc([N+](=O)[O-])cc12` [Compound 47] registered an IC50 of 8 ± 0.3 µM.

For the compound `O=c1[nH]c(Nc2ccccc2)nc2cc([N+](=O)[O-])ccc12` [Compound 46], the IC50 was found to be 6.9 ± 0.2 µM.

Consider `O=c1[nH]c(Nc2ccc(Cl)cc2)nc2ccccc12` [Compound 22], for which the IC50 amounted to 13 ± 0.4 µM.

Turning to `O=c1[nH]c(Nc2ccc(Cc3ccc([N+](=O)[O-])cc3[N+](=O)[O-])cc2)nc2ccccc12` [Compound 24], half-maximal inhibition (IC50) required 11.2 ± 1.8 µM.

The subject of the next data set is MCF-7, MDA-MB-468, BT-474 and HCC1937 breast cancer cells. In words: Fast screening / CV cell viability, breast cancer cell line panel. Details: reduction of cell viability: concentration or dose not given beside the values. The class given is cell-based, human. The conditions noted are these: 72 h, CV assay. As for the experimental part: as §1, §2
Consider `O=c1[nH]c(Nc2ccc(Cl)cc2)nc2ccccc12` [Compound 22], for which the “cytotoxicity relative to compound 19” value is “twofold less”.

Staying with this data set, now noted: 72 h, initial screening.
Take `O=c1[nH]c(Nc2ccccc2)nc2ccc([N+](=O)[O-])cc12` [Compound 47]: the “concentration below which active in cytotoxicity screening” value (shortened to “concentration below which active”) is reported as “below 10 µM”.

`O=c1[nH]c(Nc2ccccc2)nc2cc([N+](=O)[O-])ccc12` [Compound 46]: the “concentration below which active” value is on record as “below 10 µM”.

With `O=c1[nH]c(Nc2ccc(Cl)cc2)nc2ccccc12` [Compound 22], the “concentration below which active” value is given as “below 10 µM”.

Turning to `O=c1[nH]c(Nc2ccc(Cc3ccc([N+](=O)[O-])cc3[N+](=O)[O-])cc2)nc2ccccc12` [Compound 24], the “concentration below which active” value was “below 10 µM”.

The data set is the same for the next values; noted with them: 72 h, screening at 1, 10 and 50 µM.
Regarding `O=c1[nH]c(Nc2ccccc2)nc2ccc([N+](=O)[O-])cc12` [Compound 47], the “anti-proliferative / cytotoxic effect” value is “significantly reduced cell proliferation”.

In the case of `O=c1[nH]c(Nc2ccccc2)nc2ccccc12` [Compound 15, 2-(phenylamino)quinazolin-4(1H)-one], the “anti-proliferative / cytotoxic effect” value is listed as “did not show any cytotoxic effect”.

Take `Nc1ccc2nc(Nc3ccccc3)[nH]c(=O)c2c1` [Compound 49]: the “anti-proliferative / cytotoxic effect” value is recorded as “completely lack cytotoxic activity”.

As to `Nc1ccc2c(=O)[nH]c(Nc3ccccc3)nc2c1` [Compound 48], the “anti-proliferative / cytotoxic effect” value is reported as “completely lack cytotoxic activity”.

On to `O=c1[nH]c(Nc2ccccc2)nc2cc([N+](=O)[O-])ccc12` [Compound 46], for which the “anti-proliferative / cytotoxic effect” value was “significantly reduced cell proliferation”.

With `O=c1[nH]c(Nc2ccc(Cl)cc2)nc2ccccc12` [Compound 22], the “anti-proliferative / cytotoxic effect” value is listed as “significantly reduced cell proliferation”.

Regarding `O=c1[nH]c(Nc2ccc(Cc3ccc([N+](=O)[O-])cc3[N+](=O)[O-])cc2)nc2ccccc12` [Compound 24], the “anti-proliferative / cytotoxic effect” value is reported as “significantly reduced cell proliferation”.

The data set is the same for the next values; noted with them: Homo sapiens, 72 h; read-out: IC50 values (National Cancer Institute guideline criterion).
As to `O=c1[nH]c(Nc2ccccc2)nc2ccc([N+](=O)[O-])cc12` [Compound 47], the IC50 was less than 30 µg/mL.

Regarding `O=c1[nH]c(Nc2ccccc2)nc2cc([N+](=O)[O-])ccc12` [Compound 46], the half-inhibitory concentration (IC50) is less than 30 µg/mL.

For the compound `O=c1[nH]c(Nc2ccc(Cl)cc2)nc2ccccc12` [Compound 22], the IC50 is less than 30 µg/mL.

On to `O=c1[nH]c(Nc2ccc(Cc3ccc([N+](=O)[O-])cc3[N+](=O)[O-])cc2)nc2ccccc12` [Compound 24], for which the half-inhibitory concentration (IC50) was less than 30 µg/mL.

Still in this data set, the particulars now being: after 72 h of treatment, initial screening.
Take `O=c1[nH]c(Nc2ccccc2)nc2ccc([N+](=O)[O-])cc12` [Compound 47]: the “reduction of cell viability” value is on record as no less than 50%.

Take `O=c1[nH]c(Nc2ccccc2)nc2cc([N+](=O)[O-])ccc12` [Compound 46]: the “reduction of cell viability” value is reported as no less than 50%.

With `O=c1[nH]c(Nc2ccc(Cl)cc2)nc2ccccc12` [Compound 22], the “reduction of cell viability” value is no less than 50%.

Regarding `O=c1[nH]c(Nc2ccc(Cc3ccc([N+](=O)[O-])cc3[N+](=O)[O-])cc2)nc2ccccc12` [Compound 24], the “reduction of cell viability” value is listed as no less than 50%.

Usually IC50 stands for the concentration that gives 50% inhibition.
